Where “and” joins values, the source holds several entries; their conditions need not be identical. Equal entries are not always repeated.
Legend:
[1] = biological target: T1, Ephrin type-B receptor 4 (Homo sapiens) (UniProt P54760); assay: Enzymatic radiometric [Km ATP] KinaseProfiler LeadHunter assay, kinase: EphB4, catalogue number: 14-554KP The assay has been performed by Eurofins Discovery.; conditions: ATP concentration 10.0 uM, Test compound concentration 10.0 uM
T1 sequence (whole entry): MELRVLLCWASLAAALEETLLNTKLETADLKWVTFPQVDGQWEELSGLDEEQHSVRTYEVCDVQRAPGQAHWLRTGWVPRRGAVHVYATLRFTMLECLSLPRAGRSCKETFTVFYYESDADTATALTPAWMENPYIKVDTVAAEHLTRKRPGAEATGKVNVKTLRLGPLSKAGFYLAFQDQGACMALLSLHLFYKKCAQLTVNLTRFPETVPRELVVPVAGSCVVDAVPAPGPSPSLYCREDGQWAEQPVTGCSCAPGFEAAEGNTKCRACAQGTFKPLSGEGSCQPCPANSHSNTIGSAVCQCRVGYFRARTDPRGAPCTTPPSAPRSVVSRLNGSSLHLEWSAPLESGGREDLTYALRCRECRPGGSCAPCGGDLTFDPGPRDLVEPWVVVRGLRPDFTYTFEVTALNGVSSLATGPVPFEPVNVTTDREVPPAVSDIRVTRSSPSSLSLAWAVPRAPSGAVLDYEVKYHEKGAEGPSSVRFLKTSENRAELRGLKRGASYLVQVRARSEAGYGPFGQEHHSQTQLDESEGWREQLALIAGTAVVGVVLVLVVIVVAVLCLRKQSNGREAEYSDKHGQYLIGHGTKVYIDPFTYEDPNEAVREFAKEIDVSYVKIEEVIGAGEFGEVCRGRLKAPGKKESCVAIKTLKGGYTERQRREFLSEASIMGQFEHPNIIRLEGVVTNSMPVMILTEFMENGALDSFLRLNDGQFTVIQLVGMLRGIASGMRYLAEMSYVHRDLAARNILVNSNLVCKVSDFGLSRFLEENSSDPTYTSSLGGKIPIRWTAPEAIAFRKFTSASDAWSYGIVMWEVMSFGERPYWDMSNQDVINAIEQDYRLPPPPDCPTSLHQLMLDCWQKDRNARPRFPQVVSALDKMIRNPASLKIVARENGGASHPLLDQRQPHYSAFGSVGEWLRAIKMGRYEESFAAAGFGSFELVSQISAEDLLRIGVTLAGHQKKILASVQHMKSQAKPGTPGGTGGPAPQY

[2] = biological target: T2, cGMP-dependent protein kinase 1 (Homo sapiens) (UniProt Q13976); assay: Enzymatic radiometric [Km ATP] KinaseProfiler LeadHunter assay, kinase: PKG1-alpha, catalogue number: 14-688KP The assay has been performed by Eurofins Discovery.; conditions: ATP concentration 90.0 uM, Test compound concentration 10.0 uM
T2 sequence (whole entry): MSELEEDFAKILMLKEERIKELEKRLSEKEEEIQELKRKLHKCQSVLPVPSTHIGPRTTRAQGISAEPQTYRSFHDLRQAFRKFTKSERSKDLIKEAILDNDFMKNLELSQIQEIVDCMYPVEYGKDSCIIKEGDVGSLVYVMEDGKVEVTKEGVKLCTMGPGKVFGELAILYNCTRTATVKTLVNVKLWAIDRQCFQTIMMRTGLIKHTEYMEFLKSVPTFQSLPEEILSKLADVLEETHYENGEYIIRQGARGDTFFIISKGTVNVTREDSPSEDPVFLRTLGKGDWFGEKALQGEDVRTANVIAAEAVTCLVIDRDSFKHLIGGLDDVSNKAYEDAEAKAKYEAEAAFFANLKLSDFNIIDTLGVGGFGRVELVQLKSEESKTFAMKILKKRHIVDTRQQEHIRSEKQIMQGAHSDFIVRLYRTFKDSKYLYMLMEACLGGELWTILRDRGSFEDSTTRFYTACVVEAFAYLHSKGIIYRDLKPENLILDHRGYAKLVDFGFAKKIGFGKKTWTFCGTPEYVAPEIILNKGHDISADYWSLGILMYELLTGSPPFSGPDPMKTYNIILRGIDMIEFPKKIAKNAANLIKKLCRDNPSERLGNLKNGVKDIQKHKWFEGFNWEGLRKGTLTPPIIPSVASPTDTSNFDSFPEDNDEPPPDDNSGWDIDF

[3] = biological target: Casein kinase II subunit alpha' (Homo sapiens) (UniProt P19784); assay: Enzymatic radiometric [Km ATP] KinaseProfiler LeadHunter assay, kinase: CK2-alpha2, catalogue number: 14-689KP The assay has been performed by Eurofins Discovery.; conditions: ATP concentration 10.0 uM, Test compound concentration 10.0 uM
[4] = biological target: RAC-alpha serine/threonine-protein kinase (Homo sapiens) (UniProt P31749); assay: Enzymatic radiometric [Km ATP] KinaseProfiler LeadHunter assay, kinase: PKB-alpha, catalogue number: 14-276KP The assay has been performed by Eurofins Discovery.; conditions: ATP concentration 155.0 uM, Test compound concentration 10.0 uM
[5] = biological target: Glycogen synthase kinase-3 beta (Homo sapiens) (UniProt P49841); assay: Enzymatic radiometric [Km ATP] KinaseProfiler LeadHunter assay, kinase: GSK3-beta, catalogue number: 14-306KP The assay has been performed by Eurofins Discovery.; conditions: ATP concentration 15.0 uM, Test compound concentration 10.0 uM
[6] = biological target: ALK tyrosine kinase receptor (Homo sapiens) (UniProt Q9UM73); assay: Enzymatic radiometric [Km ATP] KinaseProfiler LeadHunter assay, kinase: ALK, catalogue number: 14-555KP The assay has been performed by Eurofins Discovery.; conditions: ATP concentration 200.0 uM, Test compound concentration 10.0 uM
[7] = biological target: PI3-kinase p110-alpha/p85-alpha (Homo sapiens) (UniProt P27986+P42336); assay: Enzymatic radiometric [Km ATP] KinaseProfiler LeadHunter assay, kinase: PI3 Kinase (p110-alpha/p85-alpha), catalogue number: 14-602KP The assay has been performed by Eurofins Discovery.; format: protein-complex assay; conditions: ATP concentration 200.0 uM, Test compound concentration 10.0 uM
[8] = biological target: T3, Serine/threonine-protein kinase 17A (Homo sapiens) (UniProt Q9UEE5); assay: Enzymatic radiometric [Km ATP] KinaseProfiler LeadHunter assay, kinase: DRAK1, catalogue number: 14-668KP The assay has been performed by Eurofins Discovery.; conditions: ATP concentration 10.0 uM, Test compound concentration 10.0 uM
T3 sequence (whole entry): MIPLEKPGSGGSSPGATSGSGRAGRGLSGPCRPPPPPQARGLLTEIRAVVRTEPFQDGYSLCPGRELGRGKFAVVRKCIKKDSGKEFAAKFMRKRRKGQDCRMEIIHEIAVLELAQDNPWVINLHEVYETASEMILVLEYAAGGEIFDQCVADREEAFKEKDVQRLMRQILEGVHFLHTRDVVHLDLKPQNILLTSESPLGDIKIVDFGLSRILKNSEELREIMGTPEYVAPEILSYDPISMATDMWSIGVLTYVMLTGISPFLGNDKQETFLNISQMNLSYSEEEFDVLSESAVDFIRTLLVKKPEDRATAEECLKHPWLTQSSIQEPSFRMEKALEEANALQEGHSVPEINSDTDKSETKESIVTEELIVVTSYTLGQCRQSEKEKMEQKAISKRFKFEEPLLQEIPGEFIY

Chain of Glycogen synthase kinase-3 beta (Homo sapiens) (P49841 whole entry, looked up): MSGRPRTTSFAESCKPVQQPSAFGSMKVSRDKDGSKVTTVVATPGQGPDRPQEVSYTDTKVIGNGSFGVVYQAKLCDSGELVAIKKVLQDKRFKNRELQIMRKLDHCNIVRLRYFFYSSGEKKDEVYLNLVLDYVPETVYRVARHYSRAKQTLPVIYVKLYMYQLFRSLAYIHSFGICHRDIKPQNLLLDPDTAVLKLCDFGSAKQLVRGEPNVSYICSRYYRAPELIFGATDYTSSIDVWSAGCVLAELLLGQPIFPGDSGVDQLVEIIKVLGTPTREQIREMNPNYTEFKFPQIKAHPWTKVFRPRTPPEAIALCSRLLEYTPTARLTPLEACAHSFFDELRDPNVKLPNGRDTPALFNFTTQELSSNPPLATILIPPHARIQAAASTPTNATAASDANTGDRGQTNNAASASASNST
Chain of ALK tyrosine kinase receptor (Homo sapiens) (Q9UM73 19-1620 limits assumed): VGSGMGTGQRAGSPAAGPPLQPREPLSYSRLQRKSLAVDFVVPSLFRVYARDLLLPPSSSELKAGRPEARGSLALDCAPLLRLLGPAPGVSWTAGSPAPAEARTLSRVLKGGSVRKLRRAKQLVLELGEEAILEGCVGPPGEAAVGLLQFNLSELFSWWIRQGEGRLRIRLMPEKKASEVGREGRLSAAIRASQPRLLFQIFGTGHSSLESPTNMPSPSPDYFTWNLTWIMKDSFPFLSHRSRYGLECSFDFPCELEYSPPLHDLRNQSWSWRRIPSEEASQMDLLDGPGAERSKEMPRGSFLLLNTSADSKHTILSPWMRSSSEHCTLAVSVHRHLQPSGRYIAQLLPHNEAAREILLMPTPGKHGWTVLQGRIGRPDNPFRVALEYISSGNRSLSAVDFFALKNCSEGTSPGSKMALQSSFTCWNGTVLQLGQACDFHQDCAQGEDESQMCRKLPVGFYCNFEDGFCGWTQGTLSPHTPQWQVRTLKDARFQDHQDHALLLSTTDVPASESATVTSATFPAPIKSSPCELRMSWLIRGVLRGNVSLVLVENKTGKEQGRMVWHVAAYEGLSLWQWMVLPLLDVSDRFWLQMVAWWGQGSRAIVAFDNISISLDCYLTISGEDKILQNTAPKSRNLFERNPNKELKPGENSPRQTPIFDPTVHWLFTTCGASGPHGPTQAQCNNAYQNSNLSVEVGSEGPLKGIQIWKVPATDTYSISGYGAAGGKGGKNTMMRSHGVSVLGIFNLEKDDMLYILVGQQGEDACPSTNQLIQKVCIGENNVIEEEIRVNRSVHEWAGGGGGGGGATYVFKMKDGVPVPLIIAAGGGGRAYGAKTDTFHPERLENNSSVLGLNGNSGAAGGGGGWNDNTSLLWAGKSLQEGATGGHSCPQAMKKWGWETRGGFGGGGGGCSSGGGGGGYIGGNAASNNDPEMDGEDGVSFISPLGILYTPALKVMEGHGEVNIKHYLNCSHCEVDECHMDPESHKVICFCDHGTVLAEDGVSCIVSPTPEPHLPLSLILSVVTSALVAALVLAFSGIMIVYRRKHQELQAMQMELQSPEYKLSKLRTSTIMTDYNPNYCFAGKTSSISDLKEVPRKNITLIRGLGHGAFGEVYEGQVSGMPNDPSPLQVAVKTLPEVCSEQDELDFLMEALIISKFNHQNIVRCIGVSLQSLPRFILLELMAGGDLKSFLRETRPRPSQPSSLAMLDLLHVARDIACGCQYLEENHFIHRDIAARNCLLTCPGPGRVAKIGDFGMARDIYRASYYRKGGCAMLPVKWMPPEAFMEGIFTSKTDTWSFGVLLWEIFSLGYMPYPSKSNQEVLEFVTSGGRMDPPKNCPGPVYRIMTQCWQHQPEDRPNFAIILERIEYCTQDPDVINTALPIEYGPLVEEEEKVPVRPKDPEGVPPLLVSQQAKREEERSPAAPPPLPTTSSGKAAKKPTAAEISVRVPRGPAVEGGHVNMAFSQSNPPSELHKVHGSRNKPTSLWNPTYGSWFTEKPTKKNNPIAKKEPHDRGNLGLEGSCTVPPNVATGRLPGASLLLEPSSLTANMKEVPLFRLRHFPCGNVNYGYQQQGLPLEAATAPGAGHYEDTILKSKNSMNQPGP
Chain of Casein kinase II subunit alpha' (Homo sapiens) (P19784 whole entry, looked up): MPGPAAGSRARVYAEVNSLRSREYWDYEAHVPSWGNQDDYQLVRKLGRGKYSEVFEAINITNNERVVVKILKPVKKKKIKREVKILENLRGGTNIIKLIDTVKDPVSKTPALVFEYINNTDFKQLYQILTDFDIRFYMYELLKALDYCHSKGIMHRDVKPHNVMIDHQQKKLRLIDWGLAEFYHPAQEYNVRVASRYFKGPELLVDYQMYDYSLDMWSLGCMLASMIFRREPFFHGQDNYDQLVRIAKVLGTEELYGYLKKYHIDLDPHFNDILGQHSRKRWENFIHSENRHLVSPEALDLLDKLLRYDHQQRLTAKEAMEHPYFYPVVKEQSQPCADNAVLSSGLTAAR
Chain of RAC-alpha serine/threonine-protein kinase (Homo sapiens) (P31749 whole entry): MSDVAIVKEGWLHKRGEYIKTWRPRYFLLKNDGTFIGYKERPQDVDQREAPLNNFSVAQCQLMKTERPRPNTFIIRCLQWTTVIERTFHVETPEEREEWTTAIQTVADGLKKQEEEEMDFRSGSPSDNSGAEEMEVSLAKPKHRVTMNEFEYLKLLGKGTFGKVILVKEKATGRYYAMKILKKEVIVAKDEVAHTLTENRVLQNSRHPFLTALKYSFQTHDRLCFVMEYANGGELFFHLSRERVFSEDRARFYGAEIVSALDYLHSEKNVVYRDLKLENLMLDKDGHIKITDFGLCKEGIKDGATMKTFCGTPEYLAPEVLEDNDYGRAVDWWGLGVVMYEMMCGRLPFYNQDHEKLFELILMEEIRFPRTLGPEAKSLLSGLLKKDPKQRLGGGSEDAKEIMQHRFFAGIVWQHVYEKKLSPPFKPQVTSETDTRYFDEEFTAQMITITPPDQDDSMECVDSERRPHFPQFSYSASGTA

| Structure (SMILES) | Activity [1] | Activity [2] | Activity [3] | Activity [4] | Activity [5] | Activity [6] | Activity [7] | Activity [8] |
| --- | --- | --- | --- | --- | --- | --- | --- | --- |
| C[C@H](C(=O)O)[C@@H](NC(=O)c1ncnc2[nH]ccc12)c1ccc(Br)cc1 | 105% | 118% | 91% | 95% | 93% | 99% | 100% | 98% |
| COc1ccc([C@@H](Cc2nnn[nH]2)NC(=O)c2ncnc3[nH]ccc23)cc1 | 88% | 95% | 88% | 94% | 105% | 95% | 101% | 111% |
| CC(C)[C@@H](Nc1ncnc2[nH]c(-c3cnn(C)c3C#N)cc12)c1ccc2c(n1)OCCO2 | 75% and 91% | 100% and 123% | 86% and 93% | 95% and 94% | 85% and 101% | 103% and 106% | 49% and 55% | 101% and 108% |
| Cn1ncc(-c2cc3c(N[C@@H](c4ccc5c(n4)OCCO5)C(C)(C)C)ncnc3[nH]2)c1C#N | 115% | 127% | 92% | 103% | 98% | 117% | 75% | 108% |
| CC(C)[C@H](Nc1ncnc2[nH]c(-c3cnn(C)c3C#N)cc12)c1ccc2c(n1)OCCO2 | 89% | 130% | 95% | 90% | 98% | 116% | 70% | 105% |
| COc1ccc([C@H](Cc2nnn[nH]2)NC(=O)c2ncnc3[nH]ccc23)cc1 | 106% | 121% | 93% | 97% | 90% | 106% | 99% | 111% |

Next, values leading:

| Activity [1] | Activity [2] | Activity [3] | Activity [4] | Activity [5] | Activity [6] | Activity [7] | Activity [8] | Structure (SMILES) |
| --- | --- | --- | --- | --- | --- | --- | --- | --- |
| 91% | 88% | 90% | 96% | 107% | 93% | 104% | 96% | CC(C)[C@@H](Nc1ncnc2[nH]ccc12)c1ccc2c(c1)S(=O)(=O)CCC2 |
| 86% | 116% | 98% | 88% | 93% | 106% | 104% | 105% | CC(C)[C@@H](Nc1ncnc2[nH]c(C(=O)N[C@@H]3CCN(C)C3)cc12)c1ccc2c(c1)S(=O)(=O)CCC2 |
| 98% | 128% | 92% | 91% | 96% | 99% | 102% | 111% | Cc1nn(C)cc1-c1cc2c(N[C@H](c3ccc4c(c3)S(=O)(=O)CCC4)C(C)C)ncnc2[nH]1 |
| 86% | 123% | 87% | 95% | 94% | 100% | 94% | 117% | CC(C)[C@H](Nc1ncnc2[nH]ccc12)c1ccc2c(c1)S(=O)(=O)CCC2 |
| 97% | 120% | 88% | 95% | 98% | 95% | 102% | 111% | CNC(=O)Cn1cc(-c2cc3c(N[C@@H](c4ccc5c(c4)S(=O)(=O)CCC5)C(C)C)ncnc3[nH]2)cn1 |
| 92% | 115% | 90% | 96% | 92% | 99% | 99% | 86% | CNCc1cc(-c2cc3c(N[C@@H](c4ccc5c(c4)S(=O)(=O)CCC5)C(C)C)ncnc3[nH]2)co1 |
